Data published in patent US12048705B2, “Immunoablative therapies” (AVM Biotechnology, LLC, priority 2018, dated 2024).
Several values for one entry are separate records, joined by “and”; a condition that tells them apart may be missing. Identical values can stand only once. Like-named read-outs stand apart in the source and are kept apart here. Marks after values point to notes of the source that are not given here.

Experiments:
[1] = in vivo; cited from earlier work
[2] = test system: spleen weights, germinal centers; conditions: mice, po daily for 13 weeks; cited from earlier work
[3] = test system: B lymphocytes; test: Treatment of patients with autoimmune diseases (paper examples 5 and 9); type: in vivo, human; conditions: acute high dose, patient with an autoimmune disease
Description: Acute high dose prednisone doses range from about 19 mg/kg to about 150 mg/kg, with doses between about 56 mg/kg and about 112 mg/kg being preferred, with a repeat (second) administration of this dose 24 hours later and an optional repeat (third) administration of this dose 48-72 hours after the initial dose.

[4] = test system: peripheral blood lymphocytes
Description: Each patient's pre-treatment values are connected to post-treatment values by a connecting line.
Each patient's pre-treatment values are connected to post-treatment values by a connecting line. […] HSCs are identified by being CD34+CD38−.
Blood was drawn before drug treatment and 48 hours post-treatment for CBC analysis and flow cytometry to determine lymphocyte and other blood cell populations. […] For one patient, pre-treatment CBCs were not drawn and thus normalized flow cytometry data is shown for only 3 patients.

[5] = test system: A20 B cell lymphoma; test: A20 B cell lymphoma mouse model, tumor volume; type: in vivo; conditions: 15 mg/kg HED on days 7, 10, 18, 23, 24, 28, 35, 42
Description: (§1) In the present study, mice were housed, inoculated and treated in the same way as reported in the Bascus et al. (2016) study. […] Tumor volume (mm^3) was measured every 2-3 days.

[6] = mouse, in vivo
Description: To another group of mice Cy was administered IP at 166 mg/kg (HED 500 mg/m2) on day −5 and day −4 and Fludarabine 10 mg/kg (HED 30 mg/m2) on days −5, −4, −3, −2.

[7] = test system: marginal zone and germinal centers of the spleen; test: Rat spleen marginal zone width (H&E) and germinal center area (BCL-6 staining); type: in vivo; conditions: IV or PO, 48 hours
Description: Column plots of the area per spleen of BCL-6 staining of 5 micron fixed spleen sections as a measure of germinal center numbers given as average per section are shown.
Formalin-fixed spleens were cross-sectioned in 5 pieces, trimmed and embedded in paraffin, sectioned and stained with hematoxylin and eosin (H&E). Measurements of the periarteriolar lymphoid sheath (PAL) diameter and the width of the marginal zone (MZ) in areas of white pulp that had PAL with the greatest diameter were measured using an ocular micrometer. BCL-6 immunohistochemical staining in rat spleens was evaluated to determine GC area using automated image analysis methods.

[8] = test system: germinal centers; test: Germinal centers in mouse spleen, FITC-PNA immunofluorescence; type: in vivo; conditions: HED
Description: FIG. 2. […] A graph of column plots of average Germinal Center staining intensity measured using immunofluorescent staining of fresh thick spleen sections stained with FITC-PNA is shown. Immunofluorescent intensity was calculated using thresholding and MetaMorph Image Analysis. Columns are average plus SEM.
The spleens were removed, weighed wet, and then fixed in 10% formalin. Subsequently the spleens were sectioned via proprietary methods and then incubated with FITC-PNA at 4 degC for 24 hours, washed, placed on slides and immunofluorescent images were captured. Metamorph software was used to quantify the immunofluorescent signal.

[9] = test system: hematopoietic stem cells; test: Live hematopoietic stem cells in naive mice 48 hours after treatment; conditions: high doses
[10] = test system: peripheral blood lymphocytes; test: Repeat of Hinrichs dexamethasone dosing, peripheral blood lymphocytes by flow cytometry; type: in vivo; design: reduction of Tregs / reduction of NK cells / reduction of CD3+ T lymphocytes / reduction of CD3+CD4+ T lymphocytes / reduction of CD3+CD8 T lymphocytes: concentration or dose not given beside the values
[11] = A20 B cell lymphoma mouse model, toxicity (body weight, deaths); conditions: 15 mg/kg dexamethasone base HED
Description: as §1

[12] = test system: lymphocytes, neutrophils; test: Rat complete blood count 48 hours after IV or PO dexamethasone; type: in vivo; conditions: male Lewis rats
Description: FIG. 7. […] Data in FIGS. 3, 4, and 6 are from the same rats. […] Oral (left) and IV (right) doses were administered 1×48 hours before blood withdrawal.

[13] = mouse, in vivo, 15 mg/kg
[14] = Clinical chemistries in mice after acute oral doses; type: in vivo, mouse
[15] = HED, cited from earlier work
[16] = test system: IL-2, IL-15, IL-6; conditions: oral 3 mg/kg, 48 hours
Description: Blood was drawn before drug treatment and 48 hours post-treatment for CBC analysis and flow cytometry to determine lymphocyte and other blood cell populations. Serum was analyzed for cytokine levels.

[17] = Double-blind controlled horse trial, adverse effects; type: in vivo; conditions: acute high dose; out to 70 days
[18] = test system: multiple myeloma and other cancer cell lines; test: Direct tumor killing of cancer cell lines; type: cell-based; conditions: about 1.6 mg/kg HED in a 48 hour period; maintained but not increased up to about 12 mg/kg HED
[19] = test system: peripheral blood lymphocytes; test: Mouse complete blood count and flow cytometry 24-48 hours after oral dexamethasone
Description: CD3 and CD4 positive lymphocytes. […] Relative counts/ul=flow cytometry and complete blood count combined. […] Doses are shown as HED (human equivalent dose). A one-way ANOVA followed by Tukey's test was incorporated to determine statistical significance between the treatment groups; * p<0.05, ** p<0.01, *** p<0.001.
Treg lymphocytes were identified by being CD3+CD4+CD25+FoxP3+. Relative counts/ul=flow cytometry and complete blood counts combined. […] Doses are shown as HED (human equivalent dose). A one-way ANOVA followed by post-hoc Tukey's test was incorporated to determine statistical significance between the treatment groups; * p<0.05, ** p<0.01.
NK cells were identified by being CD3−CD49b+. B lymphocytes were identified by being CD3−B220+. Relative counts/ul=flow cytometry and complete blood counts combined. […] Doses are shown as HED (human equivalent dose). A one-way ANOVA followed by post-hoc Tukey's test was incorporated to determine statistical significance between the treatment groups; * p<0.05, ** p<0.01; *** p<0.001.
Cells/ul=absolute numbers obtained from complete blood counts (CBC). […] Doses are shown as HED (human equivalent dose).
Cells/ul=absolute numbers obtained from CBC. […] Doses are shown as HED (human equivalent dose).

[20] = A20 tumor bearing mice, cell counts by CBC analyzer and chemistry (Table 2); conditions: A20 tumor bearing male mice, 15 mg/kg HED on day 28, animals 12 and 7
[21] = human, in vivo; cited from earlier work
[22] = oral, 12 mg/kg HED group vs placebo, 24-48 hours

For `C[C@]12C=CC(=O)C=C1CC[C@@H]1[C@@H]2C(=O)C[C@@]2(C)[C@H]1CC[C@]2(O)C(=O)CO` [prednisone], the biologic half-life [1] is listed as “about 20 hours”, the “dose above which spleen weights or germinal centers are significantly impacted” value [2] is listed as “over 2.5 mg/kg” and the “reduction of B lymphocyte numbers” value [3] is listed as “greater than 90%”. The “reduction of memory B cell populations” value [3] was “greater than 90%”.

With `C[C@@H]1C[C@H]2[C@@H]3CCC4=CC(=O)C=C[C@]4(C)[C@@]3(F)[C@@H](O)C[C@]2(C)[C@@]1(O)C(=O)CO` [dexamethasone] the patients showing lymphocytosis ([4]; 3 mg/kg HED) was 50%, the “hematopoietic stem cells (CD34+CD38−)” value ([4]; human, in vivo, po, 3 mg/kg) was “spared” and the “efficacy in terms of tumor volume control compared with CHOP” value [5] was “greater than 1 cycle of CHOP, but not quite as effective as 2 cycles of CHOP”. For the same molecule, the “body weight as a general measure of toxicity” value [6] was “did not impact body weight”, the “dose of maximal inhibition of germinal center area” value [7] was 12.9 mg/kg HED and the “dose of maximal inhibition of marginal zone” value [7] was 12.9 mg/kg HED. For the same molecule, the “acute dose from which germinal centers are reduced” value [8] was ≥ 6 mg/kg, the “acute dose from which germinal centers are reduced” value ([8]; listed as Dexamethasone) was ≥ 3 mg/kg and the “number of live hematopoietic stem cells” value [9] was “did not significantly alter”. For the same molecule, the “CD3+ T lymphocytes, live events” value ([10]; intraperitoneal 10 mg/kg (HED 0.81 mg/kg) on day −6, −4, −2, vehicle 3370) was 2441 live events, the “CD3-CD19+ B lymphocytes in the peripheral blood, live events by flow cytometry” value ([10]; intraperitoneal 10 mg/kg (HED 0.81 mg/kg) on day −6, −4, −2, vehicle control 10680) was 3733 live events and the “reduction of B lymphocytes” value ([10]; intraperitoneal 10 mg/kg (HED 0.81 mg/kg) on day −6, −4, −2, vs vehicle, significant) was 65%. The “reduction of CD3+ T lymphocytes” value ([10]; same dosing, non-significant) was 33%, the “reduction of CD3+CD4+ T lymphocytes” value ([10]; same dosing, non-significant) was 50% and the “reduction of CD3+CD8 T lymphocytes” value ([10]; same dosing, non-significant) was 3%. The “reduction of NK cells” value ([10]; same dosing, non-significant) was 17%, the “reduction of Tregs” value ([10]; same dosing, non-significant) was 65% and the “CD3+CD4+CD25+FoxP3+ Tregs, live events” value ([10]; same dosing, vehicle 198) was 70 live events. The “CD3+CD8 T lymphocytes, live events” value ([10]; same dosing, vehicle 1318) was 1277 live events, the “CD3+CD4+ T lymphocytes, live events” value ([10]; same dosing, vehicle 1779) was 902 live events and the “mice that died from the treatment” value [11] was “no mice died”. For the same molecule, the “RBCs, platelets, Hct, HgB” value [12] was “not affected”, the neutrophil number ([12]; all doses) was “increased by all doses” and the CRE [13] was 0.5. For the same molecule, the GGT [13] was 0, the NRBC [13] was 0* and the “clinical chemistry levels including cholesterol and total protein” value ([14]; acute oral doses, HED 6-12 mg/kg) was “do not elevate clinical chemistry levels out of normal range”. For the same molecule, the glucose level ([14]; after acute high dose) was “not elevated over the normal range”, the lowest lethal dose ([15]; healthy mice) was 114 mg/kg and the lowest lethal dose ([15]; tumor bearing mice) was 43 mg/kg. For the same molecule, the IL-6 level [16] was “not elevated in any patient”, the “patients with increased serum IL-2 and/or IL-15 levels” value [16] was 100% and the adverse side effects [17] was “no adverse side effects were observed”. For the same molecule, the direct tumor killing [18] was “about 50%”, the “reduction in CD4+, CD8+, Tregs and B cells population” value ([19]; naive mouse and rat models, high doses, 48 hours after administration, preliminary) was ~98% and the “HED dose giving almost complete lymphoablation” value ([19]; normal mice, oral) was “greater than 12 mg/kg”. The absolute neutrophils ([19]; oral HED 3-17.5 mg/kg, 24-48 hours) was “does not affect”, the “absolute RBCs and platelets” value ([19]; oral HED 3-17.5 mg/kg, 48 hours) was “does not affect” and the “reduction in B lymphocytes (CD3−B220+)” value [19, 22] was 83%. The “reduction in CD3+ T lymphocytes” value [19, 22] was 65%, the “reduction in CD4+ T lymphocytes” value [19, 22] was 75% and the “reduction in CD8+ T lymphocytes” value [19, 22] was 56%. The “reduction in NK cells (CD3−CD49b+)” value [19, 22] was 87%, the “reduction in Tregs (CD3+CD4+CD25+FoxP3+)” value [19, 22] was 78% and the “reduction in absolute lymphocyte count” value ([19]; oral, C57B1 male mice vs placebo, 24 to 48 hours, dose group not stated) was 84%. For the same molecule, the BAS % [20] was 0%, the EOS % [20] was 0% and the Meta % [20] was 0%. For the same molecule, the BASCT ([20]; 15 mg/kg) was 38 and 57, the CA ([20]; 15 mg/kg) was 9.9 and 10.0 and the EOSCT ([20]; 15 mg/kg) was 158 and 92. For the same molecule, the LYM % ([20]; 15 mg/kg) was 30% and 53%, the MON % ([20]; 15 mg/kg) was 0% and 3% and the NEU % ([20]; 15 mg/kg) was 70% and 44%. The NEUCT ([20]; 15 mg/kg) was 550 and 280, the TP ([20]; 15 mg/kg) was 5.5 and 5.4 and the WBC ([20]; 15 mg/kg) was 860 and 1150.

For “alemtuzumab: anti-CD52 lymphocyte depletional agent”, the “patients who developed (primarily thyroid) autoimmunity” value [21] is given as “two thirds”.
